Drawing on publication PMC4981720, “Identification of Multiple Cryptococcal Fungicidal Drug Targets by Combined Gene Dosing and Drug Affinity Responsive Target Stability Screening” (mBio, 2016), this text covers Ki for one compound.

The experiment has as its target T1, malate dehydrogenase (Mdh3) (Cryptococcus neoformans, UniProt J9VXN5).
T1 construct: gene CNAG_03225; Mdh3-MBP fusion protein expressed in S. cerevisiae
T1 sequence (J9VXN5 1-338): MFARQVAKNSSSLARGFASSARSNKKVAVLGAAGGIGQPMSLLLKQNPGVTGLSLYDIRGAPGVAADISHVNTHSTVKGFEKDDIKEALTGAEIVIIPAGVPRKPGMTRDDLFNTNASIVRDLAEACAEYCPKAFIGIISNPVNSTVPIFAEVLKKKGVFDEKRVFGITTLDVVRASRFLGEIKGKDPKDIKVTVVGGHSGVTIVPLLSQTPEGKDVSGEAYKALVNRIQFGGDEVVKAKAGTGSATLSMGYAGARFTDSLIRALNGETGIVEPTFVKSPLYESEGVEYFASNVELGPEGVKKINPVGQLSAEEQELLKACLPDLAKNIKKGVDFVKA
The experiment in a line: steady-state enzyme kinetics with recombinant Mdh3-MBP, NAD turnover at […] nm, with or without […] bithionol. Type of experiment: biochemical.

What is called Ki is the equilibrium dissociation constant of an inhibitor or competing ligand from its target. For the compound `Oc1c(Cl)cc(Cl)cc1Sc1cc(Cl)cc(Cl)c1O` [bithionol], the Ki stood at 3 µM.
